# According to the supplement of paper PMC10307832:
# How the values were obtained:
# Assay in all cases: relative viability (nuclei count vs DMSO), 5 days (fraction); higher = more cells survive
# RO-3306 + Navitoclax = compound: C1=CC2=C(C=CC(=C2)C=C3C(=O)NC(=NCC4=CC=CS4)S3)N=C1 [RO-3306] + CC1(C)CCC(c2ccc(Cl)cc2)=C(CN2CCN(c3ccc(C(=O)NS(=O)(=O)c4ccc(N[C@H](CCN5CCOCC5)CSc5ccccc5)c(S(=O)(=O)C(F)(F)F)c4)cc3)CC2)C1 [Navitoclax] (partner 0.5 µM)
# In short: (§1)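 Lung cancer cell lines in 1536-well plates got either a single drug or a fixed anchor-drug dose together with five library-drug doses (not always all listed) in √10 steps, by pin tool, on the day after seeding. Nuclei were counted after 5 days, and relative viability is the treated-to-vehicle ratio of nuclei counts. Values are medians of duplicate plates.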
# RO-3306 + Crizotinib = compound: C1=CC2=C(C=CC(=C2)C=C3C(=O)NC(=NCC4=CC=CS4)S3)N=C1 [RO-3306] + C[C@@H](Oc1cc(-c2cnn(C3CCNCC3)c2)cnc1N)c1c(Cl)ccc(F)c1Cl [Crizotinib] (partner 1 µM)
# In short: as §1
# RO-3306 + Dasatinib = compound: C1=CC2=C(C=CC(=C2)C=C3C(=O)NC(=NCC4=CC=CS4)S3)N=C1 [RO-3306] + Cc1nc(Nc2ncc(C(=O)Nc3c(C)cccc3Cl)s2)cc(N2CCN(CCO)CC2)n1 [Dasatinib] (partner 0.075 µM)
# In short: as §1
# RO-3306 + Pemetrexed = compound: C1=CC2=C(C=CC(=C2)C=C3C(=O)NC(=NCC4=CC=CS4)S3)N=C1 [RO-3306] + Nc1nc2[nH]cc(CCc3ccc(C(=O)N[C@@H](CCC(=O)O)C(=O)O)cc3)c2c(=O)[nH]1 [Pemetrexed] (partner 0.2 µM)
# In short: as §1
Cell Line,relative viability (RO-3306 + Navitoclax; first compound 0.01 µM),relative viability (RO-3306 + Navitoclax; first compound 0.03162 µM),relative viability (RO-3306 + Navitoclax; first compound 0.1 µM),relative viability (RO-3306 + Navitoclax; first compound 0.3162 µM),relative viability (RO-3306 + Navitoclax; first compound 1 µM),relative viability (RO-3306 + Crizotinib; first compound 0.01 µM),relative viability (RO-3306 + Crizotinib; first compound 0.03162 µM),relative viability (RO-3306 + Crizotinib; first compound 0.1 µM),relative viability (RO-3306 + Crizotinib; first compound 0.3162 µM),relative viability (RO-3306 + Crizotinib; first compound 1 µM),relative viability (RO-3306 + Dasatinib; first compound 0.01 µM),relative viability (RO-3306 + Dasatinib; first compound 0.03162 µM),relative viability (RO-3306 + Dasatinib; first compound 0.1 µM),relative viability (RO-3306 + Dasatinib; first compound 0.3162 µM),relative viability (RO-3306 + Dasatinib; first compound 1 µM),relative viability (RO-3306 + Pemetrexed; first compound 0.01 µM),relative viability (RO-3306 + Pemetrexed; first compound 0.03162 µM),relative viability (RO-3306 + Pemetrexed; first compound 0.1 µM),relative viability (RO-3306 + Pemetrexed; first compound 0.3162 µM),relative viability (RO-3306 + Pemetrexed; first compound 1 µM)
LOU-NH91,0.666,0.612,0.702,0.685,0.645,0.938,0.728,0.739,0.706,0.685,0.617,0.496,0.513,0.57,0.5,0.354,0.346,0.346,0.399,0.373
LU99A,0.916,0.708,0.866,0.747,0.803,0.644,0.556,0.576,0.579,0.568,0.606,0.581,0.553,0.507,0.553,0.285,0.267,0.174,0.176,0.188
LXF-289,0.992,0.961,0.972,0.976,0.993,0.846,0.817,0.808,0.726,0.76,0.19,0.259,0.199,0.198,0.2,0.805,0.8,1.04,0.9,0.868
NCI-H23,0.965,0.842,0.87,0.881,0.613,0.493,0.304,0.462,0.56,0.425,0.679,0.595,0.932,0.75,0.657,0.695,–,0.723,0.591,0.617
NCI-H322M,1.24,1.14,1.25,1.22,1.19,0.861,0.999,1.1,0.95,0.953,0.252,0.259,0.257,0.255,0.244,0.624,0.613,0.574,0.695,0.592
NCI-H441,0.593,0.71,0.382,0.57,0.364,0.824,0.424,0.591,0.867,0.485,0.499,0.392,0.657,0.485,0.709,0.266,0.276,0.228,0.235,0.23
NCI-H460,1.26,–,1.26,1.35,1.22,0.958,–,1.02,0.9,0.436,0.543,0.435,0.448,0.518,0.385,0.0602,0.0669,0.0671,0.0618,0.0563
NCI-H520,1.27,1.13,1.13,1.01,0.942,0.877,0.423,0.772,0.825,0.748,0.168,0.195,0.178,0.195,0.162,0.811,0.67,0.714,0.646,0.727
NCI-H596,0.894,0.967,0.962,0.994,0.72,0.968,0.896,0.998,1.07,1.08,0.557,0.554,0.657,0.665,0.552,0.519,0.403,0.467,0.522,0.452
NCI-H647,1.45,1.24,1.07,1.24,0.966,1.42,0.869,1.02,1.06,1.15,0.155,0.117,0.18,0.226,0.129,0.177,0.157,0.153,0.174,0.167
NCI-H838,1.26,1.14,1.17,1.19,1.21,0.957,0.765,0.837,0.93,0.607,0.351,0.254,0.244,0.295,0.273,0.256,0.252,0.252,0.251,0.282
NCI-H1355,1.12,0.915,0.949,1.04,0.946,1.21,0.947,1.1,1.12,1.14,0.673,–,0.683,0.703,0.504,1.15,0.976,0.961,0.97,1.05
NCI-H1437,1.16,0.996,1.05,1.13,1.1,1.13,0.682,0.988,1.01,1.03,0.428,0.288,0.283,0.405,0.461,0.343,0.311,0.374,0.344,0.37
NCI-H1650,1.15,1.11,1.19,1.19,0.974,1.02,0.921,0.973,1.02,0.732,0.326,0.284,0.311,0.33,0.291,0.517,0.351,0.324,0.335,0.38
NCI-H1651,0.982,0.854,1.04,1.14,0.882,0.865,0.834,0.88,0.881,0.84,0.383,0.329,0.382,0.418,0.354,0.644,0.569,0.554,0.556,0.54
NCI-H1666,0.954,0.871,0.858,0.86,0.779,1.04,0.869,0.915,0.839,0.89,0.794,0.724,0.772,0.795,0.698,0.94,0.798,0.819,0.836,0.868

Cell Line,relative viability (RO-3306 + Navitoclax; first compound 0.01 µM),relative viability (RO-3306 + Navitoclax; first compound 0.03162 µM),relative viability (RO-3306 + Navitoclax; first compound 0.1 µM),relative viability (RO-3306 + Navitoclax; first compound 0.3162 µM),relative viability (RO-3306 + Navitoclax; first compound 1 µM),relative viability (RO-3306 + Crizotinib; first compound 0.01 µM),relative viability (RO-3306 + Crizotinib; first compound 0.03162 µM),relative viability (RO-3306 + Crizotinib; first compound 0.1 µM),relative viability (RO-3306 + Crizotinib; first compound 0.3162 µM),relative viability (RO-3306 + Crizotinib; first compound 1 µM),relative viability (RO-3306 + Dasatinib; first compound 0.01 µM),relative viability (RO-3306 + Dasatinib; first compound 0.03162 µM),relative viability (RO-3306 + Dasatinib; first compound 0.1 µM),relative viability (RO-3306 + Dasatinib; first compound 0.3162 µM),relative viability (RO-3306 + Dasatinib; first compound 1 µM),relative viability (RO-3306 + Pemetrexed; first compound 0.01 µM),relative viability (RO-3306 + Pemetrexed; first compound 0.03162 µM),relative viability (RO-3306 + Pemetrexed; first compound 0.1 µM),relative viability (RO-3306 + Pemetrexed; first compound 0.3162 µM),relative viability (RO-3306 + Pemetrexed; first compound 1 µM)
NCI-H1734,1,0.564,0.922,0.797,0.873,0.714,0.656,0.694,0.624,0.623,0.442,0.476,0.444,0.473,0.443,0.394,0.41,0.372,0.414,0.432
NCI-H1755,1.1,0.919,1.04,1.01,1.05,0.934,1.02,0.875,0.846,0.811,0.46,0.417,0.441,0.366,0.411,0.656,0.505,0.446,0.426,0.404
NCI-H1792,0.74,–,0.614,0.599,0.311,1.25,–,0.989,0.985,0.529,1.03,–,0.752,0.814,0.55,1.11,–,0.649,0.757,0.749
NCI-H1915,0.808,0.797,0.792,0.781,0.718,1.07,0.783,0.882,0.903,0.876,0.341,0.312,0.288,0.329,0.253,0.609,0.495,0.52,0.49,0.572
NCI-H1944,1.11,1.03,0.963,1.09,0.993,1.11,0.98,1.16,1.21,1.03,0.209,0.212,0.206,0.223,0.217,0.794,0.63,0.663,0.611,0.671
NCI-H1975,1.49,0.986,1.22,1.12,1.01,1.18,0.815,1.06,1.04,0.997,0.345,0.324,0.344,0.35,0.344,0.28,0.269,0.303,0.321,0.302
NCI-H1993,–,0.926,0.892,0.864,0.83,–,0.803,0.895,0.867,0.817,0.754,0.49,0.695,0.586,0.523,0.627,0.5,0.624,0.573,0.539
NCI-H2009,1.2,1.14,1.17,1.09,1.13,1.05,0.976,1.02,1.07,1.04,0.279,0.267,0.265,0.293,0.277,1.11,1.12,1.05,0.988,1.01
NCI-H2023,1.05,0.912,0.898,0.943,1.01,0.644,0.6,0.612,0.593,0.621,0.742,0.47,0.496,0.598,0.518,0.233,0.23,0.209,0.274,0.262
NCI-H2085,1.12,1.08,1.09,1.17,1.07,0.677,0.715,0.774,0.775,0.791,0.212,0.221,0.225,0.265,0.237,0.958,0.859,0.803,0.907,0.962
NCI-H2087,0.999,1.15,0.995,1.08,0.937,1,0.902,1.04,0.893,0.945,1.01,0.541,0.914,0.869,1.04,0.678,0.677,0.636,0.652,0.648
NCI-H2126,0.868,0.816,0.822,0.858,0.756,1.08,1.01,1.08,1.06,1.04,0.663,0.622,0.58,0.523,0.542,0.673,0.671,0.707,0.735,0.676
NCI-H2170,0.571,0.447,0.593,0.62,0.595,1.34,0.758,1.15,1.24,1.13,0.492,0.585,0.57,0.621,0.456,0.314,0.311,0.241,0.251,0.271
NCI-H2228,1.19,0.805,0.673,1.07,0.62,0.471,0.335,0.408,0.445,0.541,0.569,0.435,0.47,0.562,0.453,0.356,0.36,0.347,0.355,0.265
NCI-H2347,0.947,0.645,1.03,0.772,0.93,0.675,0.691,0.718,0.7,0.656,0.296,0.285,0.285,0.284,0.283,0.44,0.37,0.428,0.433,0.437
NCI-H2405,0.91,0.735,0.934,0.949,0.834,0.863,0.786,0.864,0.828,0.794,0.199,0.493,0.173,0.225,0.463,0.913,1.02,1.01,0.971,0.907
